# Assay results: US20130196986A1 (priority 2010, published 2013)
# Target: T1, P2X7 receptor (Homo sapiens, UniProt Q99572)
# T1 construct: stably expressing the full length P2X7 receptor; expressed in transfected cells
# T1 sequence (Q99572 1-595): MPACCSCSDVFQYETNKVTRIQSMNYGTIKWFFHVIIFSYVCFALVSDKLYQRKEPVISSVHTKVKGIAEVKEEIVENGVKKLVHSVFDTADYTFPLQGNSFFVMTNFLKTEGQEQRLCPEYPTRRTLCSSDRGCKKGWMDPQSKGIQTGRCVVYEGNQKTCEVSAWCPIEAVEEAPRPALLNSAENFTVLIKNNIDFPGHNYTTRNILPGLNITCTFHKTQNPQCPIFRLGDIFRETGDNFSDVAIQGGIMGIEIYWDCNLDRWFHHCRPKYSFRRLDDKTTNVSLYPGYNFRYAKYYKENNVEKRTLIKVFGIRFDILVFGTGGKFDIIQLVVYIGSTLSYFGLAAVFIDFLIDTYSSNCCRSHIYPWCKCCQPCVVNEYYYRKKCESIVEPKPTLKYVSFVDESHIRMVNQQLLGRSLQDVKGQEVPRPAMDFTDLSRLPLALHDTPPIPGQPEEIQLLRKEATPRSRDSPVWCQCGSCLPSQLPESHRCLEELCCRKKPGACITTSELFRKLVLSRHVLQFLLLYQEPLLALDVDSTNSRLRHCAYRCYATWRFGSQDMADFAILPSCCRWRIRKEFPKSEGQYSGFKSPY
# Assay: Ca++ flux assay (FLIPR) in P2X7-HEK-293 cell line stably expressing the full length P2X7 receptor, Bz-ATP activation
# Format: cell-based
# Settings: P2X7-HEK-293 cells; agonist Bz-ATP; fluorescence as total area over 90 seconds; read-out: P2X7 Ca Flux hu IC50
# In short: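 HEK-293 cells stably expressing full-length P2X7 were loaded with Ca++-sensitive dye for 1 h, with compound added during loading. Cells were stimulated with Bz-ATP on FLIPR. Fluorescence was integrated as total area over 90 s, and IC50 was taken as 50% inhibition of the maximal Ca++ response.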
row,SMILES,IC50 [nM]
1,"Cc1c(Cl)cccc1-n1ccn2c(S(=O)(=O)Cc3ccc(F)cc3Cl)nnc2c1=O [Compound 148, 7-(3-chloro-2-methylphenyl)-3-(2-chloro-4-fluorobenzylsulfonyl)-[1,2,4]triazolo[4,3-a]pyrazin-8(7H)-one]",47
2,"Cc1c(Cl)cccc1-n1ccn2c(SCc3ccccc3Cn3cncn3)nnc2c1=O [Compound 38, 3-(2-((1H-1,2,4-triazol-1-yl)methyl)benzylthio)-7-(3-chloro-2-methylphenyl)-[1,2,4]triazolo[4,3-a]pyrazin-8(7H)-one]",1440
3,"Cc1c(Cl)cccc1-n1ccn2c(SCc3ccccc3Br)nnc2c1=O [Compound 71, 3-(2-bromobenzylthio)-7-(3-chloro-2-methylphenyl)-[1,2,4]triazolo[4,3-a]pyrazin-8(7H)-one]",142
4,"Cc1c(Cl)cccc1-n1ccn2c(S(=O)(=O)Cc3cccc(Cl)c3)nnc2c1=O [Compound 156, 7-(3-chloro-2-methylphenyl)-3-(3-chlorobenzylsulfonyl)-[1,2,4]triazolo[4,3-a]pyrazin-8(7H)-one]",119
5,"Cc1c(Cl)cccc1-n1ccn2c(S(=O)(=O)Cc3ccccc3-c3ccccc3)nnc2c1=O [Compound 155, 3-(biphenyl-2-ylmethylsulfonyl)-7-(3-chloro-2-methylphenyl)-[1,2,4]triazolo[4,3-a]pyrazin-8(7H)-one]",53.2
6,"Cc1c(Cl)cccc1-n1ccn2c(S(=O)(=O)Cc3ccccc3Br)nnc2c1=O [Compound 128, 3-(2-bromobenzylsulfonyl)-7-(3-chloro-2-methylphenyl)-[1,2,4]triazolo[4,3-a]pyrazin-8(7H)-one]",16.9
7,"O=c1c2nnc(SCc3ccccc3)n2ccn1-c1ccc(Cl)c(Cl)c1 [Compound 100, 3-(benzylthio)-7-(3,4-dichlorophenyl)-[1,2,4]triazolo[4,3-a]pyrazin-8(7H)-one]",3920
8,"Cc1c(Cl)cccc1-n1ccn2c(SCc3ccccc3C(F)(F)F)nnc2c1=O [Compound 111, 7-(3-chloro-2-methylphenyl)-3-(2-(trifluoromethyl)benzylthio)-[1,2,4]triazolo[4,3-a]pyrazin-8(7H)-one]",515
9,"Cc1c(Cl)cccc1-n1ccn2c(SCc3cccc(Cl)c3Cl)nnc2c1=O [Compound 66, 7-(3-chloro-2-methylphenyl)-3-(2,3-dichlorobenzylthio)-[1,2,4]triazolo[4,3-a]pyrazin-8(7H)-one]",324
10,"Cc1c(Cl)cccc1-n1ccn2c(SCc3cc(Cl)ccc3Cl)nnc2c1=O [Compound 72, 7-(3-chloro-2-methylphenyl)-3-(2,5-dichlorobenzylthio)-[1,2,4]triazolo[4,3-a]pyrazin-8(7H)-one]",3150
11,"Cc1ccc(-c2ccccc2CS(=O)(=O)c2nnc3c(=O)n(-c4cccc(C(F)(F)F)c4C)ccn23)cc1 [Compound 154, 7-(2-methyl-3-(trifluoromethyl)phenyl)-3-((4′-methylbiphenyl-2-yl)methylsulfonyl)-[1,2,4]triazolo[4,3-a]pyrazin-8(7H)-one]",51.9
12,"O=c1c2nnc(SCc3cc(Cl)cc(Cl)c3)n2ccn1-c1cccc(C(F)(F)F)c1F [Compound 58, 3-(3,5-dichlorobenzylthio)-7-(2-fluoro-3-(trifluoromethyl)phenyl)-[1,2,4]triazolo[4,3-a]pyrazin-8(7H)-one]",427
13,"Cc1c(-n2ccn3c(SCc4cccs4)nnc3c2=O)cccc1C(F)(F)F [Compound 15, 7-(2-methyl-3-(trifluoromethyl)phenyl)-3-(thiophen-2-ylmethylthio)-[1,2,4]triazolo[4,3-a]pyrazin-8(7H)-one]",30.4
14,"Cc1c(Cl)cccc1-n1ccn2c(SCc3ccccc3B(O)O)nnc2c1=O [Compound 24, 2-((7-(3-chloro-2-methylphenyl)-8-oxo-7,8-dihydro-[1,2,4]triazolo[4,3-a]pyrazin-3-ylthio)rnethyl)phenylboronic acid]",1010
15,[2H]c1c([2H])c([2H])c(CSc2nnc3c(=O)n(-c4cccc(Cl)c4C)ccn23)c([2H])c1[2H] [Compound 33],85.7
16,"Cc1c(Cl)cccc1-n1ccn2c(SCc3cc(Cl)ccc3F)nnc2c1=O [Compound 64, 3-(5-chloro-2-fluorobenzylthio)-7-(3-chloro-2-methylphenyl)-[1,2,4]triazolo[4,3-a]pyrazin-8(7H)-one]",755
17,"Cc1c(Cl)cccc1-n1ccn2c(SCc3ccccc3N3CCOCC3)nnc2c1=O [Compound 32, 7-(3-chloro-2-methylphenyl)-3-(2-morpholinobenzylthio)-[1,2,4]triazolo[4,3-a]pyrazin-8(7H)-one]",553
18,"Cc1c(Cl)cccc1-n1ccn2c(NCc3ccccc3-c3ccccc3)nnc2c1=O [Compound 166, 3-(biphenyl-2-ylmethylamino)-7-(3-chloro-2-methylphenyl)-[1,2,4]triazolo[4,3-a]pyrazin-8(7H)-one]",585

row,SMILES,IC50 [nM]
1,"Cc1c(Br)cccc1-n1ccn2c(SCc3ccccc3)nnc2c1=O [Compound 99, 3-(benzylthio)-7-(3-bromo-2-methylphenyl)-[1,2,4]-triazolo[4,3-a]pyrazin-8(7H)-one]",250
2,Cc1ccc(-c2ccccc2CS(=O)(=O)c2nnc3c(=O)n(-c4cccc(C(F)(F)F)c4C)ccn23)s1 [Compound 150],48.9
3,"O=c1c2nnc(SCc3ccccc3)n2ccn1-c1cccc(C(F)(F)F)c1F [Compound 59, 3-(benzylthio)-7-(2-fluoro-3-(trifluoromethyl)phenyl)-[1,2,4]triazolo[4,3-a]pyrazin-8(7H)-one]",457
4,Cc1c(-n2ccn3c(S(=O)(=O)Cc4ccccc4)nnc3c2=O)cccc1C(F)(F)F [Compound 116],29
5,"Cc1c(-n2ccn3c(S(=O)(=O)Cc4cccc5c4-c4ccccc4C5)nnc3c2=O)cccc1C(F)(F)F [Compound 159, 3-((9H-fluoren-4-yl)methylsulfonyl)-7-(2-methyl-3-(trifluoromethyl)phenyl)-[1,2,4]triazolo[4,3-a]pyrazin-8(7H)-one]",1130
6,"COC(=O)c1cccc(CSc2nnc3c(=O)n(-c4cccc(Cl)c4C)ccn23)c1 [Compound 91, methyl 3-((7-(3-chloro-2-methylphenyl)-8-oxo-7,8-dihydro-[1,2,4]triazolo[4,3-a]pyrazin-3-ylthio)methyl)benzoate]",3250
7,"Cc1cccc(CSc2nnc3c(=O)n(-c4cccc(Cl)c4C)ccn23)c1F [Compound 55, 7-(3-chloro-2-methylphenyl)-3-(2-fluoro-3-methylbenzylthio)-[1,2,4]triazolo[4,3-a]pyrazin-8(7H)-one]",432
8,"Cc1c(-n2ccn3c(S(=O)(=O)Cc4ccccc4F)nnc3c2=O)cccc1C(F)(F)F [Compound 120, 3-(2-fluorobenzylsulfonyl)-7-(2-methyl-3-(trifluoromethyl)phenyl)-[1,2,4]triazolo[4,3-a]pyrazin-8(7H)-one]",11.8
9,"Cc1c(-n2ccn3c(SCc4ccccc4-c4ccc(Cl)cc4)nnc3c2=O)cccc1C(F)(F)F [Compound 9, 3-((4′-chlorobiphenyl-2-yl)nrethylthio)-7-(2-methyl-3-(trifluoromethyl)phenyl)-[1,2,4]triazolo[4,3-a]pyrazin-8(7H)-one]",102
10,"COc1c(Cl)cccc1-n1ccn2c(SCc3ccccc3)nnc2c1=O [Compound 80, 3-(benzylthio)-7-(3-chloro-2-methoxyphenyl)-[1,2,4]triazolo[4,3-a]pyrazin-8(7H)-one]",533
11,"Cc1c(Cl)cccc1-n1ccn2c(SCc3c(Cl)cccc3Cl)nnc2c1=O [Compound 75, 7-(3-chloro-2-methylphenyl)-3-(2,6-dichlorobenzylthio)-[1,2,4]triazolo[4,3-a]pyrazin-8(7H)-one]",280
12,"COc1ccc(CSc2nnc3c(=O)n(-c4cccc(Cl)c4C)ccn23)cc1 [Compound 113, 7-(3-chloro-2-methylphenyl)-3-(4-methoxybenzylthio)-[1,2,4]triazolo[4,3-a]pyrazin-8(7H)-one]",5650
13,Cc1c(-n2ccn3c(S(=O)(=O)Cc4ccccc4-c4ccccc4)nnc3c2=O)cccc1C(F)(F)F [Compound 149],48
14,"Cc1c(-n2ccn3c(S(=O)(=O)Cc4ccc(Cl)s4)nnc3c2=O)cccc1C(F)(F)F [Compound 132, 3-((5-chlorothiophen-2-yl)methylsulfonyl)-7-(2-methyl-3-(trifluoromethyl)phenyl)-[1,2,4]triazolo[4,3-a]pyrazin-8(7H)-one]",17.9
15,"Cc1ccccc1CSc1nnc2c(=O)n(-c3cccc(C(F)(F)F)c3Cl)ccn12 [Compound 47, 7-(2-chloro-3-(trifluorornethyl)phenyl)-3-(2-methylbenzylthio)-[1,2,4]triazolo[4,3-a]pyrazin-8(7H)-one]",41.8
16,[2H]c1c([2H])c([2H])c(C([2H])([2H])Sc2nnc3c(=O)n(-c4cccc(Cl)c4C)ccn23)c([2H])c1[2H] [Compound 34],148
17,"Cc1c(-n2ccn3c(S(C)(=O)=O)nnc3c2=O)cccc1C(F)(F)F [Compound 165, 7-(2-methyl-3-(trifluoromethyl)phenyl)-3-(methylsulfonyl)-[1,2,4]triazolo[4,3-a]pyrazin-8(7H)-one]",5680
